This note sets out measurements from US20240092761A1, “QUINAZOLINE COMPOUNDS AND METHODS OF USE” (IAMBIC THERAPEUTICS, INC., priority 2022, published 2024).

One test has as its system MCF-7 cells. Description: Cell Growth Inhibition, MCF-7 (CellTiterGlo, 6 days). The test is classed as cell-based. The note with it: Homo sapiens, MCF7, 144 h; MCF-7, 6-day treatment, CellTiterGlo 2.0. An outline of the steps:
(§1)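 MCF-7 and OVCAR-3 cells (RPMI, 10% FBS) were seeded at 500 cells/well onto compound, typically 10–10,000 nM in half-log dilutions. Growth proceeded 6 days at 37 °C, then CellTiterGlo luminescence was read. % inhibition was taken versus control, and IC50 came from a four-parameter variable-slope fit.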
(In ATP-based viability assays light output follows the ATP content of the culture.)

The next test has as its system OVCAR-3 cells. As to the kind of experiment: Cell Growth Inhibition, OVCAR-3 (CellTiterGlo, 6 days). Type of test: cell-based. The note with it: Homo sapiens, 144 h; OVCAR-3, 6-day treatment, CellTiterGlo 2.0. An outline of the steps:
as §1

A further test deals with CDK4/Cyclin D1 (Homo sapiens (Human), UniProt P11802). As to the kind of experiment: CDK4/Cyclin D1 Mobility Shift Assay (MSA). The note with it: 0.2 mM ATP, read-out: CDK4/ CyclinD1 MSA IC50. The test is classed as biochemical. From the text: CDK4/Cyclin D1 Mobility Shift Assay (MSA)
Chain of CDK4/Cyclin D1 (P11802 whole entry): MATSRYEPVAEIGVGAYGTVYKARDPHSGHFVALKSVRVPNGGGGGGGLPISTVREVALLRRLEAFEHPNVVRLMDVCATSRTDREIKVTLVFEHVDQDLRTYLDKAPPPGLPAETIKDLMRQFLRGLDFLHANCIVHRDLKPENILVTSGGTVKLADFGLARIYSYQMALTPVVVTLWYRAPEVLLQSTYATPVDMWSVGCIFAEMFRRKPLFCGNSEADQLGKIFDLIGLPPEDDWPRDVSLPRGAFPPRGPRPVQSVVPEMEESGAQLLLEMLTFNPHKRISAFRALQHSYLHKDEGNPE
Chain of CDK4/Cyclin D1 (P24385 whole entry partner): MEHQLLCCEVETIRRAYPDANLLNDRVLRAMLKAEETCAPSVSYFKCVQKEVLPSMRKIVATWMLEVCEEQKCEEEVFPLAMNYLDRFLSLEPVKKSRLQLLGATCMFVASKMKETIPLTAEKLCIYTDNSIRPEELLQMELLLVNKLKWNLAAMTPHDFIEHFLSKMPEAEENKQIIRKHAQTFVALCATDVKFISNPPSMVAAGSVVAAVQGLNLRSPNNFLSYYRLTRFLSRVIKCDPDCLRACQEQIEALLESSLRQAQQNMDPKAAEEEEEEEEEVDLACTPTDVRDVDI
The purpose CDK4/Cyclin D1 assay is to evaluate the inhibition (% inhibition and IC50 values) in the presence of small molecule inhibitors by using a fluorescence based microfluidic mobility shift assay. CDK4/Cyclin D1 catalyzes the production of ADP from ATP that accompanies the phosphoryl transfer to the substrate peptide 5-FAM-Dyrktide (5-FAM-RRRFRPASPLRGPPK) (Perkin Elmer Peptide 34). The mobility shift assay (MSA) electrophoretically separates the fluorescently labelled peptides (substrate and phosphorylated product) following the kinase reaction. Both substrate and product are measured, and the ratio of these values is used to generate % conversion of substrate to product by the LabChip EZ Reader. Typical reaction solutions contained 2% DMSO (+/−inhibitor), 10 mM MgCl2, 1 mM EGTA, 0.05% BSA, 2 mM DTT, 0.2 mM ATP, 0.01% Brig-35, 1.5 uM 5-FAM-Dyrktide, 2.5 nM CDK4/Cyclin D1 in 50 mM HEPES buffer at pH 7.5. The reaction was initiated with the addition of substrate solution, following a 30-minute pre-incubation of enzyme and inhibitor at 22° C. in the reaction mix. The reaction was stopped after 180 minutes by the addition of 75 uL of 500 mM EDTA and measured on a Perkin Elmer EZ reader instrument. IC50 determinations were made from a plot of the fractional velocity as a function of inhibitor concentration fit to the 4 parameters IC50 equation.

Test [1] has as its target CDK2/Cyclin E1 full length (Homo sapiens (Human), UniProt P24941). As to the kind of experiment: CDK2/Cyclin E1 Full Length ADP-Glo Kinase Assay. Type of test: biochemical. The note with it: 20 uM ATP, read-out: CDK2/ CyclinE1 IC50. Put shortly:
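Full-length human CDK2/Cyclin E1 (0.328 nM) pre-incubated 30 min with inhibitor at RT, then reacted 90 min at RT with 20 uM ATP (Km 64.78 uM) and 0.75 uM substrate in pH 7.5 HEPES, 2% DMSO. ADP measured by ADP-Glo luminescence; IC50 from 4-parameter fit of fractional velocity.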
A general note: ADP-Glo turns the ADP formed in a reaction into a luminescent signal.

The target of a further test is CDK1/Cyclin B1 (Homo sapiens (Human), UniProt P06493). As to the kind of experiment: CDK1/Cyclin B1 ADP-Glo Kinase Assay. The conditions noted are these: 80 uM ATP. The test is classed as biochemical. Put shortly: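 CDK1/cyclin B1 (4.917 nM) preincubated 30 min with inhibitor (2% DMSO), then 80 µM ATP (Km 78.6 µM) and 0.75 µM substrate added; 90 min, room temperature, pH 7.5. ADP measured by ADP-Glo luminescence; IC50 from 4-parameter fit.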
Chain of CDK1/Cyclin B1 (P06493 whole entry): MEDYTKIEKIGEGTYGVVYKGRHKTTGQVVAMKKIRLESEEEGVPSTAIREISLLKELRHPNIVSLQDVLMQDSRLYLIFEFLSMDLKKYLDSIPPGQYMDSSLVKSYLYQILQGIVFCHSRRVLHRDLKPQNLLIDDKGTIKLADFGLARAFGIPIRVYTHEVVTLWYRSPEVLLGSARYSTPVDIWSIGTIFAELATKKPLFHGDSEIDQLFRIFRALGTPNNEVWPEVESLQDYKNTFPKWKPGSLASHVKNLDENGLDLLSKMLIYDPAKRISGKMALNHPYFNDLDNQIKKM
Chain of CDK1/Cyclin B1 (P14635 whole entry partner): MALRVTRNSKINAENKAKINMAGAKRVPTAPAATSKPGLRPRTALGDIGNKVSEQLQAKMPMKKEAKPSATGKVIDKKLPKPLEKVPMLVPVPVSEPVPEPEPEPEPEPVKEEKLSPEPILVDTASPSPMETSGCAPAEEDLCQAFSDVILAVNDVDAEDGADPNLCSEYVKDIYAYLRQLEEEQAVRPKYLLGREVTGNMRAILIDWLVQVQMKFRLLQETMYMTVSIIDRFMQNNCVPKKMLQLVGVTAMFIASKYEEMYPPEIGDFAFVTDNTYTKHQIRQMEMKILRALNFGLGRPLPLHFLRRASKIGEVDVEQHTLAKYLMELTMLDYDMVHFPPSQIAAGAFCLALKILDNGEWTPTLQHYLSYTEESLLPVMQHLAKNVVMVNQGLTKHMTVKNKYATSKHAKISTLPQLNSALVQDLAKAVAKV

The target of the next test is CDK6/Cyclin D3 (Homo sapiens (Human), UniProt Q00534). Description: CDK6/Cyclin D3 ADP-Glo Kinase Assay. The conditions noted are these: 100 uM ATP, read-out: CDK6/ CyclinD3 IC50. Type of test: biochemical. An outline of the steps: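 Recombinant human CDK6/Cyclin D3 pre-incubated 30 min with inhibitor at room temperature, then reaction started with ATP/substrate and run 90 min at room temperature. ADP formed detected by ADP-Glo luminescence; IC50 from a 4-parameter fit of fractional velocity versus inhibitor concentration.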
Chain of CDK6/Cyclin D3 (Q00534 whole entry): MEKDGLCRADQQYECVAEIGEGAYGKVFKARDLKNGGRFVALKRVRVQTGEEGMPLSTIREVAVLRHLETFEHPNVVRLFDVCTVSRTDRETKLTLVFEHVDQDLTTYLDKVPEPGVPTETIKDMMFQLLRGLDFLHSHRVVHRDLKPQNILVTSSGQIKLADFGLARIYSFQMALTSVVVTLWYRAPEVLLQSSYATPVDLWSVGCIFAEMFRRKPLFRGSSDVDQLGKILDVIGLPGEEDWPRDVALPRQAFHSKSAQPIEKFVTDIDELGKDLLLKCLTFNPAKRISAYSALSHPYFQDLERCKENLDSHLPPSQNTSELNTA
Chain of CDK6/Cyclin D3 (P30281 whole entry partner): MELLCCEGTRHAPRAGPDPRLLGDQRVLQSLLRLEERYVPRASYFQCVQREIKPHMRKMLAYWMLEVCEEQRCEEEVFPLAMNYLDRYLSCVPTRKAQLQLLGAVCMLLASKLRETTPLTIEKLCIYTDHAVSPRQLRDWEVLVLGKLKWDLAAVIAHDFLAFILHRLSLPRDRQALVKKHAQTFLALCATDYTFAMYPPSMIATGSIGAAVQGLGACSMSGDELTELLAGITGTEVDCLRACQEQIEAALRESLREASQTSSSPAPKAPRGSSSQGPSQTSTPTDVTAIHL

SMILES strings stand for the structures.

As to `CN1CCC2(C1)CN(c1cccc3cnc(NC4CCN(S(C)(=O)=O)CC4)nc13)C2` [Example 40, 8-(6-methyl-2,6-diazaspiro[3.4]octan-2-yl)-N-(1-(methylsulfonyl)piperidin-4-yl)quinazolin-2-amine], the IC50 with MCF-7 cells is above 2 µM; with OVCAR-3 cells, above 2 µM; at CDK4/Cyclin D1, 0.2 to 0.5 µM; in test [1], 0.2 to 0.5 µM; at CDK1/Cyclin B1 it was 0.5 to 2 µM; at CDK6/Cyclin D3 it was 0.2 to 0.5 µM.

Take `COCCN1CCC2(C1)CN(c1cccc3cnc(NC4CCN(S(C)(=O)=O)CC4)nc13)C2` [Example 39, 8-(6-(2-methoxyethyl)-2,6-diazaspiro[3.4]octan-2-yl)-N-(1-(methylsulfonyl)piperidin-4-yl)quinazolin-2-amine]: the IC50 is above 2 µM in the test on MCF-7 cells; above 2 µM with OVCAR-3 cells; below 0.2 µM on CDK4/Cyclin D1; below 0.2 µM in test [1]; 0.5 to 2 µM at CDK1/Cyclin B1; 0.5 to 2 µM on CDK6/Cyclin D3.

As to `CS(=O)(=O)N1CCC(Nc2ncc3cccc(N4CCC5(CNC5)C4)c3n2)CC1` [Example 15, N-(1-(methylsulfonyl)piperidin-4-yl)-8-(2,6-diazaspiro[3.4]octan-6-yl)quinazolin-2-amine], the IC50 with MCF-7 cells is 0.2 to 0.5 µM; in the test with OVCAR-3 cells it was 0.5 to 2 µM; at CDK4/Cyclin D1, below 0.2 µM; in test [1], below 0.2 µM; against CDK1/Cyclin B1 it was 0.2 to 0.5 µM; on CDK6/Cyclin D3, 0.2 to 0.5 µM.

For the compound `CS(=O)(=O)N1CCC(Nc2ncc3cccc(N4CC5(CC(O)C5)C4)c3n2)CC1` [Example 18, 2-(2-((1-(methylsulfonyl)piperidin-4-yl)amino)quinazolin-8-yl)-2-azaspiro[3.3]heptan-6-ol], the IC50 in the test on MCF-7 cells is 0.5 to 2 µM; in the test on OVCAR-3 cells it was 0.5 to 2 µM; on CDK4/Cyclin D1 it was below 0.2 µM; in test [1], below 0.2 µM; against CDK1/Cyclin B1 it was below 0.2 µM; at CDK6/Cyclin D3, below 0.2 µM.

For `CCN1CC2(C1)CN(c1ccc(Nc3ncc4cccc(N5CC6(CC(O)C6)C5)c4n3)nc1)C2` [Example 48, 2-(2-((5-(6-ethyl-2,6-diazaspiro[3.3]heptan-2-yl)pyridin-2-yl)amino)quinazolin-8-yl)-2-azaspiro[3.3]heptan-6-ol], the IC50 was 0.5 to 2 µM in the test on MCF-7 cells; above 2 µM with OVCAR-3 cells; below 0.2 µM at CDK4/Cyclin D1; above 2 µM in test [1]; above 2 µM against CDK1/Cyclin B1; below 0.2 µM on CDK6/Cyclin D3.

On to `CS(=O)(=O)N1CCC(Nc2ncc3cccc(N4CCC5(C4)CC(F)(F)C5)c3n2)CC1` [Example 3, 8-(2,2-difluoro-6-azaspiro[3.4]octan-6-yl)-N-(1-(methylsulfonyl)piperidin-4-yl)quinazolin-2-amine], for which the IC50 was above 2 µM with MCF-7 cells; above 2 µM in the test with OVCAR-3 cells; below 0.2 µM on CDK4/Cyclin D1; below 0.2 µM in test [1]; 0.5 to 2 µM against CDK1/Cyclin B1; below 0.2 µM on CDK6/Cyclin D3.

In the case of `CCN1CC2(C1)CN(c1ccc(Nc3ncc4cccc(N5CC6(CCS6(=O)=O)C5)c4n3)nc1)C2` [Example 44, 6-(2-((5-(6-ethyl-2,6-diazaspiro[3.3]heptan-2-yl)pyridin-2-yl)amino)quinazolin-8-yl)-1-thia-6-azaspiro[3.3]heptane 1,1-dioxide], the IC50 in the test with OVCAR-3 cells is above 2 µM; at CDK4/Cyclin D1 it was below 0.2 µM; in test [1], above 2 µM; at CDK1/Cyclin B1 it was above 2 µM; on CDK6/Cyclin D3, 0.2 to 0.5 µM.

On to `CS(=O)(=O)N1CCC(Nc2ncc3cccc(N4CCC5(C4)CS(=O)(=O)C5)c3n2)CC1` [Example 4, 6-(2-((1-(methylsulfonyl)piperidin-4-yl)amino)quinazolin-8-yl)-2-thia-6-azaspiro[3.4]octane 2,2-dioxide], for which the IC50 in the test with MCF-7 cells was 0.5 to 2 µM; in the test on OVCAR-3 cells it was above 2 µM; at CDK4/Cyclin D1, below 0.2 µM; in test [1], below 0.2 µM; against CDK1/Cyclin B1, 0.5 to 2 µM; on CDK6/Cyclin D3, below 0.2 µM.

For `COCCN1CC2(CCN(c3cccc4cnc(Nc5ccc(N6CC7(COC7)C6)cn5)nc34)C2)C1` [Example 43, N-(5-(2-oxa-6-azaspiro[3.3]heptan-6-yl)pyridin-2-yl)-8-(2-(2-methoxyethyl)-2,6-diazaspiro[3.4]octan-6-yl)quinazolin-2-amine], the IC50 in the test with MCF-7 cells is 0.5 to 2 µM; in the test on OVCAR-3 cells, above 2 µM; at CDK4/Cyclin D1 it was 0.2 to 0.5 µM; in test [1], above 2 µM; at CDK1/Cyclin B1 it was above 2 µM; on CDK6/Cyclin D3, 0.5 to 2 µM.

With `CC(=O)N1CCC2(CCN(c3c(F)ccc4cnc(NC5CCN(S(C)(=O)=O)CC5)nc34)C2)C1` (stereo not drawn) [Example 45, 1-(7-(7-fluoro-2-((1-(methylsulfonyl)piperidin-4-yl)amino)quinazolin-8-yl)-2,7-diazaspiro[4.4]nonan-2-yl)ethan-1-one], the IC50 in the test on MCF-7 cells was above 2 µM; with OVCAR-3 cells, above 2 µM; on CDK4/Cyclin D1 it was below 0.2 µM; in test [1], below 0.2 µM; against CDK1/Cyclin B1, 0.5 to 2 µM; at CDK6/Cyclin D3 it was below 0.2 µM.

Consider `CC(=O)N1CCC2(CCN(c3cccc4cnc(NC5CCN(S(C)(=O)=O)CC5)nc34)C2)C1` (stereo not drawn) [Example 6, 1-(7-(2-((1-(methylsulfonyl)piperidin-4-yl)amino)quinazolin-8-yl)-2,7-diazaspiro[4.4]nonan-2-yl)ethan-1-one], for which the IC50 was above 2 µM in the test on MCF-7 cells; above 2 µM with OVCAR-3 cells; below 0.2 µM at CDK4/Cyclin D1; below 0.2 µM in test [1]; above 2 µM against CDK1/Cyclin B1; below 0.2 µM at CDK6/Cyclin D3.

Turning to `CS(=O)(=O)N1CCC(Nc2ncc3cccc(N4CC5(CCS5(=O)=O)C4)c3n2)CC1` [Example 19, 6-(2-((1-(methylsulfonyl)piperidin-4-yl)amino)quinazolin-8-yl)-1-thia-6-azaspiro[3.3]heptane 1,1-dioxide], the IC50 with MCF-7 cells is 0.5 to 2 µM; in the test on OVCAR-3 cells, 0.5 to 2 µM; on CDK4/Cyclin D1 it was below 0.2 µM; in test [1] it was below 0.2 µM; against CDK1/Cyclin B1, 0.2 to 0.5 µM; at CDK6/Cyclin D3 it was below 0.2 µM.

Take `CN1CC2(CCN(c3cccc4cnc(NC5CCN(S(C)(=O)=O)CC5)nc34)C2)C1` [Example 24, 8-(2-methyl-2,6-diazaspiro[3.4]octan-6-yl)-N-(1-(methylsulfonyl)piperidin-4-yl)quinazolin-2-amine]: the IC50 with MCF-7 cells was 0.5 to 2 µM; in the test with OVCAR-3 cells it was 0.5 to 2 µM; at CDK4/Cyclin D1 it was below 0.2 µM; in test [1], below 0.2 µM; against CDK1/Cyclin B1, 0.2 to 0.5 µM; on CDK6/Cyclin D3, below 0.2 µM.

Regarding `CS(=O)(=O)N1CCC(Nc2ncc3cccc(N4CCC5(CCOCC5)C4)c3n2)CC1` [Example 26, N-(1-(methylsulfonyl)piperidin-4-yl)-8-(8-oxa-2-azaspiro[4.5]decan-2-yl)quinazolin-2-amine], the IC50 in the test with MCF-7 cells is above 2 µM; in the test with OVCAR-3 cells, above 2 µM; at CDK4/Cyclin D1, below 0.2 µM; in test [1] it was below 0.2 µM; at CDK1/Cyclin B1, 0.5 to 2 µM; on CDK6/Cyclin D3, below 0.2 µM.

Regarding `CS(=O)(=O)N1CCC(Nc2ncc3cccc(N4CCC5(CCC5(F)F)C4)c3n2)CC1` (stereo not drawn) [Example 37, 8-(1,1-difluoro-6-azaspiro[3.4]octan-6-yl)-N-(1-(methylsulfonyl)piperidin-4-yl)quinazolin-2-amine], the IC50 with MCF-7 cells was above 2 µM; in the test on OVCAR-3 cells, above 2 µM; at CDK4/Cyclin D1 it was below 0.2 µM; in test [1], below 0.2 µM; at CDK1/Cyclin B1, 0.5 to 2 µM; at CDK6/Cyclin D3, below 0.2 µM.

Take `CC1(C)CC2(CN(c3cccc4cnc(NC5CCN(S(C)(=O)=O)CC5)nc34)C2)C1` [Example 21, 8-(6,6-dimethyl-2-azaspiro[3.3]heptan-2-yl)-N-(1-(methylsulfonyl)piperidin-4-yl)quinazolin-2-amine]: the IC50 is 0.2 to 0.5 µM at CDK4/Cyclin D1, 0.2 to 0.5 µM in test [1], above 2 µM against CDK1/Cyclin B1 and above 2 µM on CDK6/Cyclin D3.
